Source: ChEMBL document CHEMBL5579790, “Development of novel β2-adrenergic receptor agonists for the stimulation of glucose uptake - The importance of chirality and ring size of cyclic amines” (Bioorg Med Chem Lett, 2024)

Target: Beta-2 adrenergic receptor (Rattus norvegicus) (UniProt P10608)
Assay: Agonist activity at beta2-adrenergic receptor in rat L6 cells transfected with GLUT4 assessed as stimulation of skeletal muscle glucose uptake at 10 uM relative to isoprenaline
Type: functional, cell-based

Beta-2 adrenergic receptor (Rattus norvegicus), sequence (P10608 whole entry, looked up): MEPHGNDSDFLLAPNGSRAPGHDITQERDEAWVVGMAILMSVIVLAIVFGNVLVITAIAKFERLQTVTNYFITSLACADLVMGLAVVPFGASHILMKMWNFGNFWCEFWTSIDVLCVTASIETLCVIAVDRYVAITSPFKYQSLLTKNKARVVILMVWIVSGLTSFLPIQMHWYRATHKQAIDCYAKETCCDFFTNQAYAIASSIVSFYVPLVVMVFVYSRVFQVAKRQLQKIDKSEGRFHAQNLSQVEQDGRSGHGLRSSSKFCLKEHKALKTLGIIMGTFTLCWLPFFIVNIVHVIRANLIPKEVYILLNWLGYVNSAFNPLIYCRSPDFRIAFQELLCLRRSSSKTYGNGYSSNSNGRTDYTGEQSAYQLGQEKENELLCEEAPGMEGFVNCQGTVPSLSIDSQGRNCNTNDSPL

Structure (SMILES)	Activity [%]	Activity (filed as agonist) [%]
CCC[C@@H]1C[C@@H]([C@H](O)c2cccc(F)c2)N1	31	–
CCC[C@H]1CCC[C@@H]([C@@H](O)c2cccc(F)c2)N1	–	48
CCC[C@H](C)NC[C@H](O)c1cccc(O)c1	–	79
CCC[C@H]1CCC[C@H]([C@@H](O)c2cccc(F)c2)N1	–	56
CCC[C@@H]1CCCC[C@@H]([C@@H](O)c2cccc(F)c2)N1	< 10	–
CCC[C@H]1CC[C@@H]([C@@H](O)c2cccc(F)c2)N1	–	64
CCC[C@H]1CC[C@@H]([C@H](O)c2cccc(F)c2)N1	27	–
CCC[C@@H]1CC[C@@H]([C@H](O)c2cccc(F)c2)N1	–	43
CCC[C@H]1C[C@H]([C@H](O)c2cccc(F)c2)N1	–	72
CCC[C@@H]1CCC[C@@H]([C@H](O)c2cccc(F)c2)N1	–	42
CCCCNC[C@H](O)c1cccc(O)c1	–	63
CCC[C@H]1CCCC[C@@H]([C@H](O)c2cccc(F)c2)N1	19	–
CCC[C@H]1CCC[C@@H]([C@H](O)c2cccc(F)c2)N1	–	67
CCC[C@@H]1CCC[C@@H]([C@@H](O)c2cccc(F)c2)N1	< 10	–
CCC[C@H]1C[C@@H]([C@@H](O)c2cccc(F)c2)N1	–	45
CCC[C@@H]1CC[C@H]([C@@H](O)c2cccc(F)c2)N1	–	41
CCC[C@@H]1CCCC[C@H]([C@@H](O)c2cccc(F)c2)N1	–	52
CCC[C@@H]1CC[C@H]([C@H](O)c2cccc(F)c2)N1	–	110
CCC[C@@H]1C[C@H]([C@H](O)c2cccc(F)c2)N1	–	103
CCC[C@H]1CCCC[C@@H]([C@@H](O)c2cccc(F)c2)N1	39	–
CCC[C@@H](C)NC[C@H](O)c1cccc(F)c1	–	90

Structure (SMILES)	Activity [%]	Activity (filed as agonist) [%]
CCC[C@H]1CC[C@H]([C@H](O)c2cccc(F)c2)N1	–	52
CCC[C@H]1C[C@H]([C@@H](O)c2cccc(F)c2)N1	37	–
CCC[C@@H]1CCCC[C@H]([C@H](O)c2cccc(F)c2)N1	39	–
CCC[C@H]1CCCC[C@H]([C@@H](O)c2cccc(F)c2)N1	15	–
CCC[C@@H]1CCCC[C@@H]([C@H](O)c2cccc(F)c2)N1	12	–
CCC[C@@H](C)NC[C@H](O)c1cccc(O)c1	–	130
CCC[C@H]1CC[C@H]([C@@H](O)c2cccc(F)c2)N1	20	–
CCC[C@H]1C[C@@H]([C@H](O)c2cccc(F)c2)N1	19	–
CCCCNC[C@@H](O)c1cccc(F)c1	< 10	–
CCC[C@H]1CCC[C@H]([C@H](O)c2cccc(F)c2)N1	–	54
CCC[C@@H]1CCC[C@H]([C@H](O)c2cccc(F)c2)N1	–	52
CCC[C@@H](C)NC[C@@H](O)c1cccc(O)c1	–	53
CCC[C@@H]1C[C@@H]([C@@H](O)c2cccc(F)c2)N1	–	47
CCC[C@@H]1C[C@H]([C@@H](O)c2cccc(F)c2)N1	–	53
CCC[C@H](C)NC[C@H](O)c1cccc(F)c1	–	75
CCC[C@@H]1CC[C@@H]([C@@H](O)c2cccc(F)c2)N1	–	57
CCC[C@H](C)NC[C@@H](O)c1cccc(O)c1	32	–
CCCCNC[C@@H](O)c1cccc(O)c1	< 10	–
CCC[C@H]1CCCC[C@H]([C@H](O)c2cccc(F)c2)N1	–	47
CCC[C@@H]1CCC[C@H]([C@@H](O)c2cccc(F)c2)N1	–	50
CCCCNC[C@H](O)c1cccc(F)c1	–	57
